What was measured:
Settings in all cases: scale 0 to 100
[1] = tested on: millet; experiment: Test G preemergence test; type: in vivo, Panicum miliaceum
[2] = tested on: windgrass; experiment: Test D preemergence test; type: in vivo, Apera spica-venti
Description: (§1) Seeds of plant species selected from annual bluegrass (Poa annua), blackgrass (Alopecurus myosuroides), downy bromegrass (Bromus tectorum), field violet (Viola arvensis), green foxtail (Setaria viridis), Italian ryegrass (Lolium multiflorum), littleseed canarygrass (Phalaris minor), spring wheat (Triticum aestivum), wild oat (Avena fatua), […]), winter barley (Hordeum vulgare), and winter wheat (Triticum aestivum) were planted and treated preemergence with test chemicals formulated in a non-phytotoxic solvent mixture which included a surfactant. […] A dash (-) response means no test result.

[3] = tested on: large crabgrass; experiment: Test G preemergence test; type: in vivo, Digitaria sanguinalis
[4] = tested on: eastern black nightshade; experiment: Test G preemergence test; type: in vivo, Solanum ptycanthum
[5] = tested on: giant foxtail; experiment: Test G preemergence test; type: in vivo, Setaria faberii
[6] = tested on: lambsquarters; experiment: Test G preemergence test; type: in vivo, Chenopodium album
[7] = tested on: broadleaf signalgrass; experiment: Test G preemergence test; type: in vivo, Brachiaria platyphylla
[8] = tested on: green foxtail; experiment: Test D preemergence test; type: in vivo, Setaria viridis
Description: as §1

[9] = tested on: fall panicum; experiment: Test G preemergence test; type: in vivo, Panicum dichotomiflorum
[10] = tested on: common chickweed; experiment: Test F preemergence test; type: in vivo, Stellaria media
Description: Seeds of plant species selected from bermudagrass (Cynodon dactylon), Surinam grass (Brachiaria decumbens), large crabgrass (Digitaria sanguinalis), green foxtail (Setaria viridis), goosegrass (Eleusine indica), johnsongrass (Sorghum halepense), kochia (Kochia scoparia), pitted morningglory (Ipomoea lacunosa), purple nutsedge (Cyperus rotundus), common ragweed (Ambrosia elation), mustard (Brassica nigra), guineagrass (Panicum maximum), […] (Paspalum dilatatum), barnyardgrass (Echinochloa crus-galli), southern sandbur (Cenchrus echinatus), common sowthistle (Sonchus oleraceous), prickly […] spinosa), Italian ryegrass (Lolium multiflorum), common purslane (Portulaca oleracea), broadleaf signalgrass (Brachiaria platyphylla), common groundsel (Senecio vulgaris), common chickweed (Stellaria media), Virginia dayflower (Commelina virginica), annual bluegrass (Poa annua), naked crabgrass (Digitaria nuda), […] cochinchinensis), quackgrass (Elytrigia repens), Canada horseweed (Conyza canadensis), field bindweed (Convolvulus arvensis), […] (Bidens bipinnata), common mallow (Malva sylvestris), Russian thistle (Salsola kali), and sugarcane (Saccharum officinarum) were planted and treated preemergence with test chemicals formulated in a non-phytotoxic solvent mixture which included a surfactant. At a different time, sugarcane was treated with postemergence applications of some of the test chemicals formulated in the same manner. Plants were approximately 3- to 4-leaf stage for the postemergence treatments. Treated plants and controls were maintained in a greenhouse for 14 to 21 days, after which time all species were compared to controls and visually evaluated. […] A dash (-) response means no test result.

[11] = tested on: cotton; experiment: Test G preemergence test; type: in vivo, Gossypium hirsutum

Cc1cc[n+]([O-])c(S(=O)(=O)C(Cl)c2c(C(F)(F)F)nn(C)c2Cl)c1 (racemic) [Compound 22] was tested, and the “Plant response rating, Millet” value ([1]; 31 g ai/ha) was 0, the “Plant response rating, Millet” value ([1]; 62 g ai/ha) was 35 and the “Plant response rating, Millet” value ([1]; 125 g ai/ha) was 60. For the same molecule, the “Plant response rating, Millet” value ([1]; 250 g ai/ha) was 100, the “Plant response rating, Windgrass” value ([2]; 31 g ai/ha) was 100 and the “Plant response rating, Windgrass” value ([2]; 62 g ai/ha) was 100. For the same molecule, the “Plant response rating, Windgrass” value ([2]; 125 g ai/ha) was 100, the “Plant response rating, Windgrass” value ([2]; 250 g ai/ha) was 100 and the “Plant response rating, Crabgrass, Large” value ([3]; 31 g ai/ha) was 60. The “Plant response rating, Crabgrass, Large” value ([3]; 62 g ai/ha) was 60, the “Plant response rating, Crabgrass, Large” value ([3]; 125 g ai/ha) was 95 and the “Plant response rating, Crabgrass, Large” value ([3]; 250 g ai/ha) was 100. For the same molecule, the “Plant response rating, Nightshade” value ([4]; 31 g ai/ha) was 0, the “Plant response rating, Nightshade” value ([4]; 62 g ai/ha) was 0 and the “Plant response rating, Nightshade” value ([4]; 125 g ai/ha) was 0. The “Plant response rating, Nightshade” value ([4]; 250 g ai/ha) was 45, the “Plant response rating, Foxtail, Giant” value ([5]; 31 g ai/ha) was 65 and the “Plant response rating, Foxtail, Giant” value ([5]; 62 g ai/ha) was 70. The “Plant response rating, Foxtail, Giant” value ([5]; 125 g ai/ha) was 75, the “Plant response rating, Foxtail, Giant” value ([5]; 250 g ai/ha) was 75 and the “Plant response rating, Lambsquarters” value ([6]; 31 g ai/ha) was 0. The “Plant response rating, Lambsquarters” value ([6]; 62 g ai/ha) was 0, the “Plant response rating, Lambsquarters” value ([6]; 125 g ai/ha) was 0 and the “Plant response rating, Lambsquarters” value ([6]; 250 g ai/ha) was 80. The “Plant response rating, Signalgrass” value ([7]; 31 g ai/ha) was 0, the “Plant response rating, Signalgrass” value ([7]; 62 g ai/ha) was 40 and the “Plant response rating, Signalgrass” value ([7]; 125 g ai/ha) was 65. For the same molecule, the “Plant response rating, Signalgrass” value ([7]; 250 g ai/ha) was 75, the “Plant response rating, Foxtail, Green” value ([8]; 31 g ai/ha) was 15 and the “Plant response rating, Foxtail, Green” value ([8]; 62 g ai/ha) was 40. The “Plant response rating, Foxtail, Green” value ([8]; 125 g ai/ha) was 95, the “Plant response rating, Foxtail, Green” value ([8]; 250 g ai/ha) was 100 and the “Plant response rating, Fall Panicum” value ([9]; 31 g ai/ha) was 85. The “Plant response rating, Fall Panicum” value ([9]; 62 g ai/ha) was 85, the “Plant response rating, Fall Panicum” value ([9]; 125 g ai/ha) was 90 and the “Plant response rating, Fall Panicum” value ([9]; 250 g ai/ha) was 100. For the same molecule, the “Chickweed plant response rating” value ([10]; 62 g ai/ha, Preemergence) was 100, the “Chickweed plant response rating” value ([10]; 125 g ai/ha, preemergence) was 100 and the “Plant response rating, Chickweed” value ([10]; Preemergence, 16 g ai/ha) was 0. The “Plant response rating, Chickweed” value ([10]; Preemergence, 31 g ai/ha) was 65, the “Plant response rating, Cotton” value ([11]; 31 g ai/ha) was 0 and the “Plant response rating, Cotton” value ([11]; 62 g ai/ha) was 0. For the same molecule, the “Plant response rating, Cotton” value ([11]; 125 g ai/ha) was 0 and the “Plant response rating, Cotton” value ([11]; 250 g ai/ha) was 0.
Cn1nc(C(F)(F)F)c(CS(=O)(=O)c2cccc[n+]2[O-])c1OC(F)F [Compound 4] was tested, and the “Plant response rating, Millet” value ([1]; 31 g ai/ha) was 20, the “Plant response rating, Millet” value ([1]; 62 g ai/ha) was 40 and the “Plant response rating, Millet” value ([1]; 125 g ai/ha) was 40. For the same molecule, the “Plant response rating, Millet” value ([1]; 250 g ai/ha) was 100, the “Plant response rating, Windgrass” value ([2]; 31 g ai/ha) was 90 and the “Plant response rating, Windgrass” value ([2]; 62 g ai/ha) was 100. The “Plant response rating, Windgrass” value ([2]; 125 g ai/ha) was 100, the “Plant response rating, Windgrass” value ([2]; 250 g ai/ha) was 100 and the “Plant response rating, Crabgrass, Large” value ([3]; 31 g ai/ha) was 85. For the same molecule, the “Plant response rating, Crabgrass, Large” value ([3]; 62 g ai/ha) was 80, the “Plant response rating, Crabgrass, Large” value ([3]; 125 g ai/ha) was 95 and the “Plant response rating, Crabgrass, Large” value ([3]; 250 g ai/ha) was 100. The “Plant response rating, Nightshade” value ([4]; 31 g ai/ha) was 20, the “Plant response rating, Nightshade” value ([4]; 62 g ai/ha) was 30 and the “Plant response rating, Nightshade” value ([4]; 125 g ai/ha) was 90. For the same molecule, the “Plant response rating, Nightshade” value ([4]; 250 g ai/ha) was 100, the “Plant response rating, Foxtail, Giant” value ([5]; 31 g ai/ha) was 40 and the “Plant response rating, Foxtail, Giant” value ([5]; 62 g ai/ha) was 50. The “Plant response rating, Foxtail, Giant” value ([5]; 125 g ai/ha) was 90, the “Plant response rating, Foxtail, Giant” value ([5]; 250 g ai/ha) was 100 and the “Plant response rating, Lambsquarters” value ([6]; 31 g ai/ha) was 0. The “Plant response rating, Lambsquarters” value ([6]; 62 g ai/ha) was 10, the “Plant response rating, Lambsquarters” value ([6]; 125 g ai/ha) was 10 and the “Plant response rating, Lambsquarters” value ([6]; 250 g ai/ha) was 10. For the same molecule, the “Plant response rating, Signalgrass” value ([7]; 31 g ai/ha) was 0, the “Plant response rating, Signalgrass” value ([7]; 62 g ai/ha) was 20 and the “Plant response rating, Signalgrass” value ([7]; 125 g ai/ha) was 80. The “Plant response rating, Signalgrass” value ([7]; 250 g ai/ha) was 90, the “Plant response rating, Foxtail, Green” value ([8]; 31 g ai/ha) was 40 and the “Plant response rating, Foxtail, Green” value ([8]; 62 g ai/ha) was 50. For the same molecule, the “Plant response rating, Foxtail, Green” value ([8]; 125 g ai/ha) was 50, the “Plant response rating, Foxtail, Green” value ([8]; 250 g ai/ha) was 100 and the “Plant response rating, Fall Panicum” value ([9]; 31 g ai/ha) was 20. For the same molecule, the “Plant response rating, Fall Panicum” value ([9]; 62 g ai/ha) was 20, the “Plant response rating, Fall Panicum” value ([9]; 125 g ai/ha) was 60 and the “Plant response rating, Fall Panicum” value ([9]; 250 g ai/ha) was 100. For the same molecule, the “Plant response rating, Chickweed” value ([10]; 8 g ai/ha, preemergence) was 60, the “Chickweed plant response rating” value ([10]; 62 g ai/ha, Preemergence) was 100 and the “Plant response rating, Chickweed” value ([10]; Preemergence, 16 g ai/ha) was 100. For the same molecule, the “Plant response rating, Chickweed” value ([10]; Preemergence, 31 g ai/ha) was 100, the “Plant response rating, Cotton” value ([11]; 31 g ai/ha) was 5 and the “Plant response rating, Cotton” value ([11]; 62 g ai/ha) was 25. The “Plant response rating, Cotton” value ([11]; 125 g ai/ha) was 0 and the “Plant response rating, Cotton” value ([11]; 250 g ai/ha) was 10.

— patent publication US20100298141A1, “SUBSTITUTED PYRIDINE N-OXIDE HERBICIDES” (E. I. DU PONT DE NEMOURS AND COMPANY, priority 2007, published 2010)
